According to patent US11661400B2, “NADPH oxidase inhibitors, pharmaceutical composition comprising the same, and application thereof” (TAIWANJ PHARMACEUTICALS CO., LTD., priority 2018, dated 2023):

Tests used:
[1] = molecular target: T1, NOX1 (Homo sapiens, UniProt Q9Y5S8); test: NOX1 HT29 cell-based assay (luminol/HRP luminescence); settings: HT29 cells, DMSO = 0%, GKT137831 = 100%; for inhibition at 0.1 µM / inhibition at 1 µM: HT-29; for inhibition at 1 µM: 1000 nM
T1 construct: endogenous in cells; host or cells: HT29
T1 sequence (Q9Y5S8 1-564): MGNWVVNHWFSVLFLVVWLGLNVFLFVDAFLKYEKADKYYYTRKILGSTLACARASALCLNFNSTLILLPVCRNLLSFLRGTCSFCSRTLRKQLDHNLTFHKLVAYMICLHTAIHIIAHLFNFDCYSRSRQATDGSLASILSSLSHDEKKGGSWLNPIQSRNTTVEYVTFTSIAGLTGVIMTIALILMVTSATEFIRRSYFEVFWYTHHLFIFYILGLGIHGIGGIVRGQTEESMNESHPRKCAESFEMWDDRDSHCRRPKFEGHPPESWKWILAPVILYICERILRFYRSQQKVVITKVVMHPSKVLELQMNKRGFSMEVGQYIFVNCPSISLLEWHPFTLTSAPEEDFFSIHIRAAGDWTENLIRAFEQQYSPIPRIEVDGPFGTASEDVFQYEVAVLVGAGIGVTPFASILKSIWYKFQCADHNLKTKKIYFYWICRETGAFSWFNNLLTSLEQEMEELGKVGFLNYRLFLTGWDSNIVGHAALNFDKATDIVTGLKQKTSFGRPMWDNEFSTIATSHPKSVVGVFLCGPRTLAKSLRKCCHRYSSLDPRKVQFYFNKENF
T1 sequence (P13498 2-195 partner limits assumed): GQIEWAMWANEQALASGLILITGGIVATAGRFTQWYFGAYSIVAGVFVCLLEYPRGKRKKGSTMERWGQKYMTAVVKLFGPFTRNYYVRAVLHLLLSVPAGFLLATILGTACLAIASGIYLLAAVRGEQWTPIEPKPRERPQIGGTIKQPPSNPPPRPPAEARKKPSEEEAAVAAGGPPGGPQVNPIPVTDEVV
Method in brief: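 HT29 cells (1-2×10^5 per well) pretreated 30-60 min at 37 °C with compound at 100 nM and 1000 nM final, in duplicate, 0.1% DMSO. ROS read as luminol (100 μM)/HRP (0.4 U) luminescence. Activity normalised to DMSO (0%) and GKT137831 (100%).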

[2] = molecular target: T2, NOX4 (Homo sapiens, UniProt Q9NPH5); test: NOX4 HEK293 overexpression cell-based assay (Amplex Red H2O2); settings: HEK293 cells stably overexpressing NOX4, DMSO = 0, GKT137831 = 100; for inhibition at 0.1 µM: HEK293, 100 nM; for inhibition at 1 µM: HEK293, 1000 nM
T2 construct: expressed in transfected cells
T2 sequence (Q9NPH5 1-578): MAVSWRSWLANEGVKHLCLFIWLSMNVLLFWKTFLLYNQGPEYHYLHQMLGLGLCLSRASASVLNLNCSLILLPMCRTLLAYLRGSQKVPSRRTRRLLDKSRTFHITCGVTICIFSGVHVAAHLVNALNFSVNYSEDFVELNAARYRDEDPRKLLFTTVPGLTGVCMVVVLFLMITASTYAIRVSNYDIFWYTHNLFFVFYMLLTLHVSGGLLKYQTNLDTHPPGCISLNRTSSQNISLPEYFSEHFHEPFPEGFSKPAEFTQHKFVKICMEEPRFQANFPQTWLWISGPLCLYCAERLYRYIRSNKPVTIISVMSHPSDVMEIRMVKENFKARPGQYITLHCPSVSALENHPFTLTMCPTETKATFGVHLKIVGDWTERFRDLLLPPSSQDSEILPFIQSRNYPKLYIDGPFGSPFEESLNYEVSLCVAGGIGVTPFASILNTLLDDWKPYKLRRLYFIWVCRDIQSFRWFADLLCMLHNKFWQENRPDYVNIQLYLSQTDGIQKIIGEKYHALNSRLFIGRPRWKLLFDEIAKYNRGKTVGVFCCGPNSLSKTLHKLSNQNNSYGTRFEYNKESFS
T2 sequence (P13498 2-195 partner limits assumed): T1 sequence (P13498 2-195 partner limits assumed)
Method in brief: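 HEK293 cells stably overexpressing NOX4 (3×10^4) preincubated 30 min at 37° C with compound in KRPG buffer, then mixed with Amplex Red reagent solution (50 μM Amplex Red, 0.1 units/mL HRP) for 90 min at 37° C in the dark. Supernatant fluorescence read at 530/590 nm; DMSO set to 0 and GKT137831 to 100.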

[3] = molecular target: T3, NOX2 (Homo sapiens, UniProt P04839); test: NOX2 HL60 cell-based assay (PMA oxidative burst, L012 chemiluminescence); settings: DMSO-differentiated HL-60 cells, PMA-stimulated; for inhibition at 0.1 µM: HL-60, 100 nM; for inhibition at 1 µM: HL-60, 1000 nM; for % Inhibition NOX2: 100 nM
T3 construct: HL-60 cells, rich in NOX2 expression; endogenous in cells; host or cells: DMSO-differentiated HL-60
T3 sequence (P04839 2-570 limits assumed): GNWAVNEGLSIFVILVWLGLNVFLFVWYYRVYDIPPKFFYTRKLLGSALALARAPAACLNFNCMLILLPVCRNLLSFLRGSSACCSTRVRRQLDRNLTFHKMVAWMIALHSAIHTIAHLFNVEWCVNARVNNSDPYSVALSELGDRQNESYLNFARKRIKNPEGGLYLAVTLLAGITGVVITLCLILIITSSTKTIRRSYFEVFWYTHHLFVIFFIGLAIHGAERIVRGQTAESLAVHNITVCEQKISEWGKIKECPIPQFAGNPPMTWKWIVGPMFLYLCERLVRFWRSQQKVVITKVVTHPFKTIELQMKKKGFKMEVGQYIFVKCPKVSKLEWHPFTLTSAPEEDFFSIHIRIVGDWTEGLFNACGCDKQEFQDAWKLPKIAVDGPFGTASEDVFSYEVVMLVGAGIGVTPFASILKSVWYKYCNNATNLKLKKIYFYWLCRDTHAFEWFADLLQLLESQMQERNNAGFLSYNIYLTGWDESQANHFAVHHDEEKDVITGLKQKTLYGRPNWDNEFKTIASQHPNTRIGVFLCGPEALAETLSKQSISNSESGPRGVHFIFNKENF
T3 sequence (P13498 2-195 partner limits assumed): T1 sequence (P13498 2-195 partner limits assumed)
Method in brief: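 DMSO-differentiated HL-60 cells (2.5×10^5/well) with 100 μM L012 preincubated with compound 30-60 min at 37 °C in the dark. Oxidative burst triggered by 10 ng/mL PMA; superoxide chemiluminescence read every 5 min for 60 min.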

Structure (SMILES) | inhibition at 0.1 µM ([1]; 100 nM) | inhibition at 1 µM [1] | inhibition at 0.1 µM [2] | inhibition at 1 µM [2] | inhibition at 0.1 µM [3] | inhibition at 1 µM [3] | % Inhibition NOX4 ([2]; 100 nM) | % Inhibition NOX4 ([2]; 1000 nM, 1 µM) | % Inhibition NOX2 [3] | % Inhibition NOX1 ([1]; 100 nM, 0.1 µM)
COc1ccccc1-c1[nH]c2c(OC)c(OC)c(OC)cc2c(=O)c1O [Compound 19] | ≥ 80% | ≥ 80% | ≤ 19% | 50 to 79% | ≤ 19% | 50 to 79% | – | – | – | –
COc1ccccc1-c1[nH]c2cc3c(cc2c(=O)c1O)OCO3 [Compound 26] | ≥ 80% | ≥ 80% | – | ≥ 80% | 50 to 79% | ≥ 80% | C (the percent of inhibition of NOX by the compounds ranges from 2000 to 49%) | – | – | –
CCCOc1ccccc1-c1[nH]c2cc(OC)c(OC)cc2c(=O)c1O [Compound 22] | ≥ 80% | ≥ 80% | – | ≥ 80% | – | ≥ 80% | C (the percent of inhibition of NOX by the compounds ranges from 2000 to 49%) | – | C (the percent of inhibition of NOX by the compounds ranges from 2000 to 49%) | –
COc1cc2[nH]c(-c3ccccc3)c(N)c(=O)c2cc1OC [Compound 37] | ≤ 19% | ≥ 80% | ≤ 19% | 50 to 79% | 50 to 79% | ≥ 80% | – | – | – | –
COc1cc2[nH]c(-c3ccccc3[N+](=O)[O-])c(O)c(=O)c2cc1OC [Compound 29, 3-hydroxy-6,7-dimethoxy-2-(2-nitrophenyl) quinolin-4(1H)-one 2,2,2-trifluoroacetate] | ≥ 80% | ≥ 80% | 50 to 79% | 50 to 79% | – | ≥ 80% | – | – | C (the percent of inhibition of NOX by the compounds ranges from 2000 to 49%) | –
CCOc1ccccc1-c1[nH]c2cc(OC)c(OC)cc2c(=O)c1O [Compound 21] | ≥ 80% | ≥ 80% | – | ≥ 80% | ≤ 19% | 50 to 79% | C (the percent of inhibition of NOX by the compounds ranges from 2000 to 49%) | – | – | –

Now from value to compound, other results behind:

inhibition at 0.1 µM ([1]; 100 nM) | inhibition at 1 µM [1] | inhibition at 0.1 µM [2] | inhibition at 1 µM [2] | inhibition at 0.1 µM [3] | inhibition at 1 µM [3] | Structure (SMILES) | % Inhibition NOX4 ([2]; 100 nM) | % Inhibition NOX4 ([2]; 1000 nM, 1 µM) | % Inhibition NOX2 [3] | % Inhibition NOX1 ([1]; 100 nM, 0.1 µM)
≤ 19% | ≤ 19% | ≤ 19% | ≤ 19% | ≤ 19% | ≤ 19% | COc1ccc2[nH]c(C(=O)c3ccccc3OC)c(O)c(=O)c2c1 [Compound 34, 3-hydroxy-6-methoxy-2-(2-methoxybenzoyl) quinolin-4(1H)-one] | – | – | – | –
≥ 80% | ≥ 80% | – | 50 to 79% | ≤ 19% | ≤ 19% | COc1cc2[nH]c(-c3ccc(C)cc3)c(O)c(=O)c2cc1OC [Compound 6] | C (the percent of inhibition of NOX by the compounds ranges from 2000 to 49%) | – | – | –
≥ 80% | ≥ 80% | 50 to 79% | – | ≤ 19% | ≥ 80% | COc1cc2[nH]c(-c3ccccc3Cl)c(O)c(=O)c2cc1OC [Compound 9] | – | A (the percent of inhibition of NOX by the compounds is larger than or equals to 80%) | – | –
≥ 80% | ≥ 80% | ≤ 19% | 50 to 79% | ≤ 19% | 50 to 79% | COc1ccc(-c2[nH]c3cc(C(=O)O)ccc3c(=O)c2O)cc1 [Compound 33, 3-hydroxy-2-(4-methoxyphenyl)-4-oxo-1,4-dihydroquinoline-7-carboxylic acid] | – | – | – | –
– | ≥ 80% | ≤ 19% | 50 to 79% | ≤ 19% | ≤ 19% | COc1cc2[nH]c(-c3ccc(Cl)cc3)c(O)c(=O)c2cc1OC [Compound 8] | – | – | – | C (the percent of inhibition of NOX by the compounds ranges from 2000 to 49%)
